Measured values taken from patent EP4778531A1, “MUSCLE RELAXANT ANTAGONIST FOR REVERSAL FOR BENZYLISOQUINOLINE MUSCLE RELAXANT” (priority 2023, dated 2025).

Experiments:
[1] = system: neuromuscular blockade induced by atracurium; conditions: H. D. de Boer et al., British Journal of Anaesthesia 2006; cited from earlier work
[2] = such as mivacurium, atracurium, and cisatracurium; background; cited from earlier work
[3] = system: Inflammation-Related Factors; format: in vivo, ICR mice; conditions: Adamgammadex sodium 1 g/kg, Sugammadex sodium 1 mg/kg, Neostigmine 0.3 mg/kg
Experimental: An antibody array is a type of protein chip characterized by miniaturization, integration, and high throughput. It can be used to detect the expression abundance of proteins related to a specific physiological or pathological process. The principle involves arranging capture antibodies on a membrane or glass slide, incubating with the sample, adding biotin-labeled antibodies against the target proteins, and finally using HRP-streptavidin or fluorescein-streptavidin to detect the chip signal. Signals are detected using chemiluminescence or HiLyte™ Fluor 555-streptavidin.
In this experiment, ICR mice were randomly divided into a blank group, Adamgammadex sodium (1 g/kg) group, Sugammadex sodium (1 mg/kg) group, and Neostigmine (0.3 mg/kg) group, with 2 mice per group. Mice in each group given the corresponding dosage of compound via the tail vein once daily for 5 consecutive days. On the last day after administration, plasma from the 2 animals per group was mixed and detected using the Ary028 immune chip kit. Specific detection steps were as follows: • (1) Sample volume determination: 200 µL serum sample per Array unit. (2) Blocking protein chip: Each membrane was blocked with 2 mL of corresponding Array Buffer, incubated on a shaker for 1 hour. (3) Sample processing: Samples were diluted with corresponding Array Buffer to a volume of 1.5 mL per membrane, the corresponding Array unit was added, and incubated overnight with the Array protein membrane at 4°C. (4) Membranes were washed three times with corresponding Wash buffer, then diluted detection antibody was added and incubated at room temperature for 1 h. (5) Membranes were washed three times with corresponding Wash buffer, streptavidin-HRP was added and incubated for 30min at room temperature with shaking. (6) Membranes were washed three times with corresponding Wash buffer, 1 mL of chemiluminescent reagent was added to each well, and developed on a chemiluminescence imager. (7) Fluorescence intensity was used to represent the relative concentration of the corresponding protein.

[4] = ICR mice, tail vein once daily for 5 days, pooled plasma of 2 mice, N.D. = below minimum detection limit

In the case of O=C([O-])CCSC[C@H]1O[C@@H]2O[C@H]3[C@H](O)[C@@H](O)[C@@H](O[C@H]4[C@H](O)[C@@H](O)[C@@H](O[C@H]5[C@H](O)[C@@H](O)[C@@H](O[C@H]6[C@H](O)[C@@H](O)[C@@H](O[C@H]7[C@H](O)[C@@H](O)[C@@H](O[C@H]8[C@H](O)[C@@H](O)[C@@H](O[C@H]9[C@H](O)C(O)[C@@H](O[C@H]1[C@H](O)[C@H]2O)O[C@@H]9CSCCC(=O)[O-])O[C@@H]8CSCCC(=O)[O-])O[C@@H]7CSCCC(=O)[O-])O[C@@H]6CSCCC(=O)[O-])O[C@@H]5CSCCC(=O)[O-])O[C@@H]4CSCCC(=O)[O-])O[C@@H]3CSCCC(=O)[O-].[Na+].[Na+].[Na+].[Na+].[Na+].[Na+].[Na+].[Na+] (stereo partly drawn) [Compound 7, Sugammadex sodium], the “reversing the neuromuscular blockade induced by atracurium (in words)” value [1] is given as “ineffective”, the “binding to succinylcholine or benzylisoquinoline-type neuromuscular blocking agents (in words)” value [2] is given as “does not bind” and the “Fluorescence Intensity BAFF/BlyS/ TNFSF13B (B cell activation factor)” value [3, 4] is given as 13375.34. For the same molecule, the “Fluorescence Intensity C-Reactive Protein/CRP (C-reactive protein)” value [3, 4] was 8550.52, the “Fluorescence Intensity CCL21/6Ckine (Lymphocyte chemokine CCL21)” value [3, 4] was 27027.2 and the “Fluorescence Intensity CCL22/MDC (Macrophage-derived chemokine)” value [3, 4] was 2578.89. The “Fluorescence Intensity CD160 (Leukocyte differentiation antigen160)” value [3, 4] was 187.67, the “Fluorescence Intensity CXCL9/MIG (IFN-γ-induced monocyte factor)” value [3, 4] was 3617.92 and the “Fluorescence Intensity Chemerin (Chemotactic factor)” value [3, 4] was 4629.24. For the same molecule, the “Fluorescence Intensity IL-7 (Interleukin-7)” value [3, 4] was 1922.84, the “Fluorescence Intensity IL-11 (Interleukin-11)” value [3, 4] was 216.49 and the “Fluorescence Intensity IL-12p40 (Interleukin IL-12p40)” value [3, 4] was 1049.34. The “Fluorescence Intensity IL-28 (Interleukin-28)” value [3, 4] was 2440.68, the “Fluorescence Intensity IL-33 (Interleukin-33)” value [3, 4] was 592.77 and the “Fluorescence Intensity M-CSF (Macrophage colony-stimulating factor)” value [3, 4] was 5871.05. For the same molecule, the “Fluorescence Intensity Myeloperoxidase (Mastoperoxidase)” value [3, 4] was 4645.21, the “Fluorescence Intensity Pentraxin 3 (Pertussis toxin 3)” value [3, 4] was 4555.53 and the “Fluorescence Intensity TIM-1/KIM-1/ HAVCR (Hepatitis A virus receptor-1 (inflammation/ immunity))” value [3, 4] was 1023.1. The “impact on inducing immune inflammation in mice (in words)” value ([3]; conclusion from Tables 3 and 4) was “second-lowest impact”, the “Fluorescence Intensity M-CSF (Macrophage lysis-stimulating factor)” value ([3]; second M-CSF line of Table 4, ICR mice, tail vein once daily for 5 days, pooled plasma of 2 mice, N.D. = below minimum detection limit) was 5871.05 and the “Fluorescence Intensity Pentraxin 3/TSG-14 (Pertussis toxin 3)” value ([3]; second Pentraxin 3 line of Table 4, ICR mice, tail vein once daily for 5 days, pooled plasma of 2 mice, N.D. = below minimum detection limit) was 4555.53.
